Results taken from the NIST ThermoML archive (doi:10.1021/acs.jced.6b00232).

Test: mn = molality of the nth substance listed, in mol/kg
Details: 84.5 kPa, Liquid; for speed of sound: Frequency=3 MHz, Sing-around technique in a fixed-path interferometer; for mass density: Vibrating tube method

O=C(CO)[C@@H](O)[C@H](O)[C@H](O)CO [D-fructose] + O
Details	mass density, 288.15 K [kg/m3]	mass density, 293.15 K [kg/m3]	mass density, 298.15 K [kg/m3]	mass density, 303.15 K [kg/m3]	mass density, 308.15 K [kg/m3]	speed of sound, 288.15 K [m/s]	speed of sound, 293.15 K [m/s]	speed of sound, 298.15 K [m/s]	speed of sound, 303.15 K [m/s]	speed of sound, 308.15 K [m/s]
m1 = 0.1716	–	–	1008.73	–	–	1478.9	1494.4	1508	1519.8	1529.9
m1 = 0.2312	1015.03	1013.99	1012.69	–	1009.43	1483.2	1498.5	1511.8	–	1533.4
m1 = 0.292	1019.08	1018	1016.66	1015.1	1013.34	1487.5	–	1515.7	1527.1	1536.9
m1 = 0.4825	1031.39	1030.21	1028.76	1027.1	1025.25	1500.9	1515.3	–	–	1547.8
m1 = 0.6161	1039.7	1038.45	1036.93	1035.21	1033.29	1510.2	1524.1	1536.2	1546.5	1555.3
m1 = 0.9787	1061.06	1059.67	1057.92	1056.02	1053.95	1534.7	1547.5	1558.4	1567.7	1575.5
m1 = 1.386	1083.13	1081.5	1079.62	1077.55	1075.32	1561.6	1572.9	1582.5	1590.7	1597.3
m1 = 1.851	1106.02	1104.26	1102.2	1099.94	1097.55	1588.9	1599.1	1607.5	1614.3	1619.9
m1 = 2.379	1129.63	1127.76	1125.52	1123.09	1120.53	1622.1	1630.8	1637.6	1643	1647.2
m1 = 2.981	1153.68	1151.66	1149.24	1146.65	1143.92	1655.5	1662.7	1668	1671.9	1674.7
m1 = 3.667	1178.12	1175.94	1173.34	1170.58	1167.69	1691	1696.5	1700.1	1702.5	1703.9

O=C[C@H](O)[C@@H](O)[C@H](O)[C@H](O)CO [D-glucose] + O
Details	mass density, 288.15 K [kg/m3]	mass density, 293.15 K [kg/m3]	mass density, 298.15 K [kg/m3]	mass density, 303.15 K [kg/m3]	mass density, 308.15 K [kg/m3]	speed of sound, 288.15 K [m/s]	speed of sound, 293.15 K [m/s]	speed of sound, 298.15 K [m/s]	speed of sound, 303.15 K [m/s]	speed of sound, 308.15 K [m/s]
m1 = 0.2921	1018.67	1017.62	1016.34	1014.83	1013.12	–	1501	1514.3	1526	1535.9
m1 = 0.4836	1030.78	1029.64	1028.28	1026.7	1024.93	1498.4	1513	1525.9	1537.1	1546.6
m1 = 0.6164	1038.85	1037.66	1036.24	1034.62	1032.81	1507	1521.3	1533.9	1544.7	1554
m1 = 0.9795	1059.74	1058.4	1056.86	1055.12	1053.22	1530.3	–	1555.2	1565.2	1573.6
m1 = 1.388	1081.24	1079.76	1078.09	1076.24	1074.24	1555.6	1567.8	1578.4	1587.4	1595
m1 = 1.85	1103.58	1101.95	1100.14	1098.18	1096.07	1583.6	1594.7	1604.2	1612.2	1618.8
m1 = 2.379	1126.54	1124.77	1122.85	1120.79	1118.58	1613.6	1623.3	1631.7	1638.6	1644.3
m1 = 2.989	1150.24	1148.34	1146.3	1144.14	1141.85	1646	1654.4	1661.4	1667.2	1671.8
m1 = 3.7	1174.74	1172.71	1170.56	1168.3	1165.92	1681.2	1688	1693.8	1698.3	1701.8

OC[C@H]1O[C@@](CO)(O[C@H]2O[C@H](CO)[C@@H](O)[C@H](O)[C@H]2O)[C@@H](O)[C@@H]1O [D-sucrose] + O
Details	mass density, 288.15 K [kg/m3]	mass density, 293.15 K [kg/m3]	mass density, 298.15 K [kg/m3]	mass density, 303.15 K [kg/m3]	mass density, 308.15 K [kg/m3]	speed of sound, 288.15 K [m/s]	speed of sound, 293.15 K [m/s]	speed of sound, 298.15 K [m/s]	speed of sound, 303.15 K [m/s]	speed of sound, 308.15 K [m/s]
m1 = 0.09036	1010.86	1009.89	1008.67	1007.22	1005.55	1475.4	1491.1	1504.9	1516.9	1527.3
m1 = 0.1217	1014.83	1013.84	1012.59	1011.12	1009.43	1478.5	1494	1507.7	1519.6	1529.8
m1 = 0.1537	1018.82	1017.8	1016.53	1015.04	1013.34	1481.6	1497	1510.6	1522.3	1532.5
m1 = 0.2538	1030.98	1029.88	1028.55	1027	1025.25	1491.5	1506.4	1519.5	1530.9	1540.7
m1 = 0.3245	1039.25	1038.1	1036.73	1035.14	1033.35	1498.3	1513	1525.8	1537	1546.5
m1 = 0.5156	1060.41	1059.13	1057.64	1055.96	1054.09	1516.8	1530.7	1542.8	1553.2	1562
m1 = 0.729	1082.25	1080.85	1079.25	1077.46	1075.5	1537.3	1550.2	1561.5	1571.1	1579.2
m1 = 0.9736	1105.1	1103.56	1101.84	1099.96	1097.9	1559.9	1571.9	1582.2	1591	1598.4
m1 = 1.252	1128.74	1127.07	1125.24	1123.25	1121.11	1585.2	1596.1	1605.4	1613.3	1619.7
m1 = 1.573	1153.12	1151.33	1149.38	1147.28	1145.06	1613	1622.7	1630.9	1637.7	1643.2
m1 = 1.948	1178.48	1176.55	1174.48	1172.29	1169.98	1643.8	1652.1	1659.1	1664.8	1669.3
